Reference: ChEMBL document CHEMBL3588848, “Dihydropyrrolopyrazol-6-one MCHR1 antagonists for the treatment of obesity: Insights on in vivo efficacy from a novel FLIPR assay setup” (Bioorg Med Chem Lett, 2015)
Blank lines part the entries; values can stand above or below the compound they belong to.

Legend:
Rattus norvegicus [1] = test: Antiobesity activity in Sprague-Dawley rat assessed as body weight loss at 15 mg/kg, po qd administered 1 hr prior to onset of dark cycle measured for 7 days relative to vehicle-treated control; type: functional
[2] = Drug uptake in Sprague-Dawley rat brain at 15 mg/kg, po qd measured at 20 hrs post dose; type: ADME, organism-based; conditions: read-out: Drug uptake
[3] = Lipophilicity, log P of the compound by HPLC analysis; type: physicochemical
[4] = Displacement of [Phe13, [125I]Tyr19]-MCH from human MCHR1 E4Q/A5T double mutant expressed in HEK293 cell membranes after 90 mins by scintillation counting analysis
[5] = Plasma concentration in Sprague-Dawley rat at 15 mg/kg, po qd measured at 20 hrs post dose; type: ADME, organism-based
[6] = Fraction unbound in Sprague-Dawley rat plasma at 15 mg/kg, po qd; type: ADME, organism-based
Plasma [7] = test: Fraction unbound in Sprague-Dawley rat plasma assessed as 2-(4-chlorophenyl)-5-(4-(2-hydroxy-2-methylpropoxy)-3-methoxyphenyl)-4,5-dihydropyrrolo[3,4-c]pyrazol-6(2H)-one at 30 mg/kg, po qd; type: ADME, organism-based; conditions: in vivo
Plasma [8] = test: Plasma concentration in Sprague-Dawley rat assessed as 2-(4-chlorophenyl)-5-(4-(2-hydroxy-2-methylpropoxy)-3-methoxyphenyl)-4,5-dihydropyrrolo[3,4-c]pyrazol-6(2H)-one at 30 mg/kg, po qd measured at 20 hrs post dose; type: ADME, organism-based; conditions: in vivo
[9] = target: T1, Melanin-concentrating hormone receptor 1 (Rattus norvegicus, UniProt P97639); test: Antagonist activity at rat MCHR1 assessed as 2-(4-chlorophenyl)-5-(4-(2-hydroxy-2-methylpropoxy)-3-methoxyphenyl)-4,5-dihydropyrrolo[3,4-c]pyrazol-6(2H)-one
T1 sequence (P97639 whole entry): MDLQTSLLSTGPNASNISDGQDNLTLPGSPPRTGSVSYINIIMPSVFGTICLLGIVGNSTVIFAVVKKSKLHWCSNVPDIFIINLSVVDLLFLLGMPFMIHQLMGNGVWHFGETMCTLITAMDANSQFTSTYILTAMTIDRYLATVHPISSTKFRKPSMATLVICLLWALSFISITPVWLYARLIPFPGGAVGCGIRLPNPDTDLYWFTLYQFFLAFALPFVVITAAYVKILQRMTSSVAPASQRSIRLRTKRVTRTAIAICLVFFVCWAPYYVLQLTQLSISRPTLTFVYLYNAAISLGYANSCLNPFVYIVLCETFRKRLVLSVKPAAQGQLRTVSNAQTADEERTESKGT

Brain [10] = test: Drug uptake in Sprague-Dawley rat brain assessed as 2-(4-chlorophenyl)-5-(4-(2-hydroxy-2-methylpropoxy)-3-methoxyphenyl)-4,5-dihydropyrrolo[3,4-c]pyrazol-6(2H)-one at 30 mg/kg, po qd measured at 20 hrs post dose; type: ADME, organism-based; conditions: in vivo, read-out: Drug uptake
Rattus norvegicus [11] = test: Antiobesity activity in Sprague-Dawley rat assessed as 2-(4-chlorophenyl)-5-(4-(2-hydroxy-2-methylpropoxy)-3-methoxyphenyl)-4,5-dihydropyrrolo[3,4-c]pyrazol-6(2H)-one-mediated body weight loss at 30 mg/kg, po qd administered 1 hr prior to onset of dark cycle measured for 4 days relative to vehicle-treated control; type: functional
[12] = target: Melanin-concentrating hormone receptor 1 (Homo sapiens, UniProt Q99705); test: Antagonist activity at human MCHR1 expressed in HEK293 cells assessed as inhibition of MCH-stimulated Ca2+ influx preincubated for 120 mins followed by MCH challenge by FLIPR assay; type: functional, cell-based
Chain of Melanin-concentrating hormone receptor 1 (Homo sapiens, UniProt Q99705) (Q99705 whole entry): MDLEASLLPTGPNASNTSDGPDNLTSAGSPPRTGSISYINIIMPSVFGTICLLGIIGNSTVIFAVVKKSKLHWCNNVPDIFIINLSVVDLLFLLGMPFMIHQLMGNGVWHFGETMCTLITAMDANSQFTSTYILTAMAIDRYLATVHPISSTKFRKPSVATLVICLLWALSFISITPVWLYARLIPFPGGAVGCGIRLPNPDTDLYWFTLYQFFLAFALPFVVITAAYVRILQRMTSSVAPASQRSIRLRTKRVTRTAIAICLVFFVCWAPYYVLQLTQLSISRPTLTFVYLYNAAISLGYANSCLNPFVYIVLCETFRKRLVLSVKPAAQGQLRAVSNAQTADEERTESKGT

hERG (KCNH2) [13] = target: T2, hERG (KCNH2) (Homo sapiens, UniProt Q12809); test: Inhibition of human ERG expressed in CHO cells at 0.3 uM by automated whole-cell patch clamp electrophysiology system relative to control; type: cell-based; conditions: CHO cells expressing human ERG
T2 sequence (Q12809 whole entry): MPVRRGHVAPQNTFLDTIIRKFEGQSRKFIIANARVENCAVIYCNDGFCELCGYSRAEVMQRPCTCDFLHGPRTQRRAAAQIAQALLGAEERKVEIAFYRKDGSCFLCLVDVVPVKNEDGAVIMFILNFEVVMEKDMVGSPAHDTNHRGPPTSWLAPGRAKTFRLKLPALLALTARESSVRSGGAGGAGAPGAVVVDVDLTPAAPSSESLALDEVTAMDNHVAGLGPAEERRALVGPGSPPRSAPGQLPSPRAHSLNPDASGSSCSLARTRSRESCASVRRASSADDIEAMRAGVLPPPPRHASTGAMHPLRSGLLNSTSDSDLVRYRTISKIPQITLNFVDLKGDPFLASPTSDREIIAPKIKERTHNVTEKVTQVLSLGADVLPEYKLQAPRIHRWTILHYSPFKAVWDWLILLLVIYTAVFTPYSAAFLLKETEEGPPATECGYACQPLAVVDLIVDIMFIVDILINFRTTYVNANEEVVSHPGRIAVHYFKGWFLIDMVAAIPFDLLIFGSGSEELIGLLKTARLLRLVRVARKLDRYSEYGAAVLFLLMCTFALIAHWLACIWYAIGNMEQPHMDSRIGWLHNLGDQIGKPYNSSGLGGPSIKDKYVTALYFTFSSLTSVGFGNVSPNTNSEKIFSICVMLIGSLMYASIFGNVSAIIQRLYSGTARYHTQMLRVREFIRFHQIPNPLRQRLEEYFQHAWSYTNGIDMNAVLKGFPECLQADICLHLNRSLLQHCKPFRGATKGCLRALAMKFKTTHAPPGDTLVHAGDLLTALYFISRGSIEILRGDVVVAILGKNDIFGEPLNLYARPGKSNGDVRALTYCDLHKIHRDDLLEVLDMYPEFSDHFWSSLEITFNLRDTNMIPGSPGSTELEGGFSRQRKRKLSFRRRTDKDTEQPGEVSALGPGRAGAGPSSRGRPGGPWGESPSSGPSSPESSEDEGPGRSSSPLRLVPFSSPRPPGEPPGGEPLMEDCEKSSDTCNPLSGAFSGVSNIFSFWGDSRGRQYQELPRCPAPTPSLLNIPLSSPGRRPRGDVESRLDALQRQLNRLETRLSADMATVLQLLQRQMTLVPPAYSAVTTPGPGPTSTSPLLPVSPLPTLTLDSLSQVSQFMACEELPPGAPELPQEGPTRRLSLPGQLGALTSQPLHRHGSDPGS

[14] = Plasma concentration in Sprague-Dawley rat at 1 mg/kg, po qd measured at 20 hrs post dose; type: ADME, organism-based
[15] = Ratio of unbound concentration in Sprague-Dawley rat brain at 3 mg/kg, po qd to Ki for rat MCHR1; type: ADME, organism-based; conditions: in vivo
Rattus norvegicus [16] = test: Antiobesity activity in Sprague-Dawley rat assessed as body weight loss at 3 mg/kg, po qd administered 1 hr prior to onset of dark cycle measured for 7 days relative to vehicle-treated control; type: functional
[17] = Fraction unbound in Sprague-Dawley rat plasma at 1 mg/kg, po qd; type: ADME, organism-based
[18] = Drug uptake in Sprague-Dawley rat brain at 10 mg/kg, po qd measured at 20 hrs post dose; type: ADME, organism-based; conditions: read-out: Drug uptake
Brain [19] = test: Drug uptake in Sprague-Dawley rat brain at 1 mg/kg, po qd measured at 20 hrs post dose; type: ADME, organism-based; conditions: in vivo, BLD = below limit of detection
[20] = Plasma concentration in Sprague-Dawley rat at 10 mg/kg, po qd measured at 20 hrs post dose; type: ADME, organism-based
[21] = Fraction unbound in Sprague-Dawley rat plasma at 3 mg/kg, po qd; type: ADME, organism-based
Rattus norvegicus [22] = test: Antiobesity activity in Sprague-Dawley rat assessed as body weight loss at 1 mg/kg, po qd administered 1 hr prior to onset of dark cycle measured for 7 days relative to vehicle-treated control; type: functional
Rattus norvegicus [23] = test: Antiobesity activity in Sprague-Dawley rat assessed as body weight loss at 10 mg/kg, po qd administered 1 hr prior to onset of dark cycle measured for 7 days relative to vehicle-treated control; type: functional
[24] = Drug uptake in Sprague-Dawley rat brain at 3 mg/kg, po qd measured at 20 hrs post dose; type: ADME, organism-based; conditions: read-out: Drug uptake
[25] = Fraction unbound in Sprague-Dawley rat plasma at 10 mg/kg, po qd; type: ADME, organism-based
hERG (KCNH2) [26] = target: T2, hERG (KCNH2); test: Inhibition of human ERG expressed in CHO cells at 1 uM by automated whole-cell patch clamp electrophysiology system relative to control; type: cell-based; conditions: CHO cells expressing human ERG
[27] = Ratio of unbound concentration in Sprague-Dawley rat brain at 10 mg/kg, po qd to Ki for rat MCHR1; type: ADME, organism-based; conditions: in vivo
[28] = Plasma concentration in Sprague-Dawley rat at 3 mg/kg, po qd measured at 20 hrs post dose; type: ADME, organism-based
[29] = target: T1, Melanin-concentrating hormone receptor 1; test: Antagonist activity at rat MCHR1
[30] = target: Voltage-gated inwardly rectifying potassium channel KCNH2 (Homo sapiens, UniProt Q12809); test: Inhibition of human ERG expressed in CHO cells by automated whole-cell patch clamp electrophysiology system; type: cell-based
Chain of Voltage-gated inwardly rectifying potassium channel KCNH2 (Q12809 whole entry): as above

[31] = target: T1, Melanin-concentrating hormone receptor 1; test: Antagonist activity at rat MCHR1 assessed as 6-(4-chlorophenyl)-3-(4-(2-hydroxy-2-methylpropoxy)-3-methoxyphenyl)thieno[3,2-d]pyrimidin-4(3H)-one
Plasma [32] = test: Plasma concentration in Sprague-Dawley rat assessed as 6-(4-chlorophenyl)-3-(4-(2-hydroxy-2-methylpropoxy)-3-methoxyphenyl)thieno[3,2-d]pyrimidin-4(3H)-one at 10 mg/kg, po qd measured at 20 hrs post dose; type: ADME, organism-based; conditions: in vivo
[33] = Ratio of drug level in brain to plasma in Sprague-Dawley rat assessed as 6-(4-chlorophenyl)-3-(4-(2-hydroxy-2-methylpropoxy)-3-methoxyphenyl)thieno[3,2-d]pyrimidin-4(3H)-one at 10 mg/kg, po qd measured at 20 hrs post dose
Brain [34] = test: Drug uptake in Sprague-Dawley rat brain assessed as 6-(4-chlorophenyl)-3-(4-(2-hydroxy-2-methylpropoxy)-3-methoxyphenyl)thieno[3,2-d]pyrimidin-4(3H)-one at 10 mg/kg, po qd measured at 20 hrs post dose; type: ADME, organism-based; conditions: in vivo
Plasma [35] = test: Fraction unbound in Sprague-Dawley rat plasma assessed as 6-(4-chlorophenyl)-3-(4-(2-hydroxy-2-methylpropoxy)-3-methoxyphenyl)thieno[3,2-d]pyrimidin-4(3H)-one at 10 mg/kg, po qd; type: ADME, organism-based; conditions: in vivo
[36] = Ratio of unbound concentration in Sprague-Dawley rat brain assessed as 6-(4-chlorophenyl)-3-(4-(2-hydroxy-2-methylpropoxy)-3-methoxyphenyl)thieno[3,2-d]pyrimidin-4(3H)-one at 10 mg/kg, po qd to Ki for rat MCHR1 assessed as 6-(4-chlorophenyl)-3-(4-(2-hydroxy-2-methylpropoxy)-3-methoxyphenyl)thieno[3,2-d]pyrimidin-4(3H)-one; type: ADME, organism-based; conditions: in vivo
Rattus norvegicus [37] = test: Antiobesity activity in Sprague-Dawley rat assessed as 6-(4-chlorophenyl)-3-(4-(2-hydroxy-2-methylpropoxy)-3-methoxyphenyl)thieno[3,2-d]pyrimidin-4(3H)-one-mediated body weight loss at 10 mg/kg, po qd administered 1 hr prior to onset of dark cycle measured for 7 days relative to vehicle-treated control; type: functional

concentration at 20 h [2]: 654 nM | logP [3]: 3.5 | concentration at 20 h [5]: 378 nM | fraction unbound [6]: 0.012
Compound: COc1cc(-n2cnc3cc(-c4ccc(Cl)cc4)sc3c2=O)ccc1OCCN1CCCC1
Activity (Rattus norvegicus [1]): 8.7% | Ki [4]: 1 nM

Fu (Plasma [7]): 1% | concentration (Plasma [8]): 2560 nM | Ki [9]: 3.8 nM | concentration (Brain [10]): 1060 nM
Compound: COc1cc(N2Cc3cn(-c4ccc(Cl)cc4)nc3C2=O)ccc1OCC(C)(C)OC(=O)CN
Activity (Rattus norvegicus [11]): 1.8%

Compound: COc1cc(N2Cc3cn(-c4ccc(Cl)cc4)nc3C2=O)ccc1OCC(C)O (configuration not stated)
Ki [4]: 13 nM

IC50 [12]: 1170 nM
Compound: COc1cc(N2Cc3cn(-c4ccc(Cl)cc4)nc3C2=O)ccc1OCC(C)(C)O
Ki [4]: 8 nM

Compound: COc1cc(N2Cc3cn(-c4ccc(Cl)cc4)nc3C2=O)ccc1OC[C@H](O)C1CC1
Ki [4]: 9 nM

Compound: COc1cc(N2Cc3cn(-c4ccc(Cl)cn4)nc3C2=O)ccc1OCC(C)(C)O
Ki [4]: 44 nM

IC50 [12]: 3060 nM | logP [3]: 2.8
Compound: COc1cc(N2Cc3cn(-c4ccc(Cl)cc4)nc3C2=O)ccc1OCCN1CCCC1
Ki [4]: 0.42 nM | inhibition at 0.3 µM (hERG (KCNH2) [13]): 58%

Compound: COc1cc(N2Cc3nn(-c4ccc(Cl)cc4)cc3C2=O)ccc1OCC(C)O (configuration not stated)
Ki [4]: 334 nM

Compound: COc1cc(N2Cc3nn(-c4ccc(Cl)cc4)cc3C2=O)ccc1OCC(C)(C)O
Ki [4]: 107 nM

Compound: COc1cc(N2Cc3nn(-c4ccc(Cl)cc4)cc3C2=O)ccc1OC[C@H](O)C1CC1
Ki [4]: 41 nM

Compound: COc1cc(N2Cc3nn(-c4ccc(Cl)cc4)nc3C2=O)ccc1OCC(C)(C)O
Ki [4]: 34 nM

logP [3]: 3.3
Compound: COc1cc(N2Cc3nn(-c4ccc(Cl)cc4)nc3C2=O)ccc1OCCN1CCCC1
Ki [4]: 2.3 nM | inhibition at 0.3 µM (hERG (KCNH2) [13]): 68%

concentration at 20 h [14]: 131 nM | IC50 [12]: 241 nM | Ratio [15]: 39 | fraction unbound [17]: 0.042 | concentration at 20 h [18]: 2770 nM | Drug uptake (Brain [19]): BLD | concentration at 20 h [20]: 1580 nM | fraction unbound [21]: 0.042 | concentration at 20 h [24]: 739 nM | fraction unbound [25]: 0.042 | Ratio [27]: 145 | concentration at 20 h [28]: 574 nM | Ki [29]: 0.8 nM
Compound: CN[C@H]1CCN(c2ccc(N3Cc4cn(-c5ccc(Cl)cc5)nc4C3=O)cn2)C1
Activity (Rattus norvegicus [16]): 3.8% | Ki [4]: 0.96 nM | Activity (Rattus norvegicus [22]): 2.2% | Activity (Rattus norvegicus [23]): 7.5% | inhibition at 1 µM (hERG (KCNH2) [26]): 66%

Compound: CN[C@@H]1CCN(c2ccc(N3Cc4cn(-c5ccc(Cl)cc5)nc4C3=O)cn2)C1
Ki [4]: 1.3 nM | inhibition at 1 µM (hERG (KCNH2) [26]): 50%

Compound: CN(C)[C@H]1CCN(c2ccc(N3Cc4cn(-c5ccc(Cl)cc5)nc4C3=O)cn2)C1
Ki [4]: 0.7 nM | inhibition at 1 µM (hERG (KCNH2) [26]): 50%

Compound: N[C@H]1CCN(c2ccc(N3Cc4cn(-c5ccc(Cl)cc5)nc4C3=O)cn2)C1
Ki [4]: 2.1 nM | inhibition at 1 µM (hERG (KCNH2) [26]): 58%

Compound: CNC1CCN(c2ccc(N3Cc4cn(-c5ccc(Cl)cc5)nc4C3=O)cc2)C1 (configuration not stated)
Ki [4]: 0.8 nM | inhibition at 0.3 µM (hERG (KCNH2) [13]): 51%

Compound: CC(=O)N(C)C1CCN(c2ccc(N3Cc4cn(-c5ccc(Cl)cc5)nc4C3=O)cn2)C1 (configuration not stated)
Ki [4]: 6.5 nM | inhibition at 1 µM (hERG (KCNH2) [26]): 23%

Compound: CC(C)(C)NC1CCN(c2ccc(N3Cc4cn(-c5ccc(Cl)cc5)nc4C3=O)cn2)C1 (configuration not stated)
Ki [4]: 2.7 nM | inhibition at 1 µM (hERG (KCNH2) [26]): 71%

Compound: COc1cc(N2Cc3cn(-c4ccc(Cl)cc4)nc3C2=O)ccc1N1CC[C@@H](O)C1
Ki [4]: 7.1 nM | IC50 [30]: > 80000 nM

Compound: COc1cc(N2Cc3cn(-c4ccc(Cl)cc4)nc3C2=O)ccc1N1C[C@H](O)[C@@H](O)C1
Ki [4]: 11 nM | IC50 [30]: > 30000 nM | inhibition at 1 µM (hERG (KCNH2) [26]): < 5%

IC50 [12]: 13 nM
Compound: COc1cc(-n2cnc3cc(-c4ccc(Cl)cc4)sc3c2=O)ccc1OCC(C)(C)O
Ki [4]: 7.9 nM

Ki [31]: 7.2 nM | concentration (Plasma [32]): 546 nM | BPR [33]: 1.7 | Drug uptake (Brain [34]): 1610 nM | Fu (Plasma [35]): 0.7% | Ratio [36]: 1.6
Compound: COc1cc(-n2cnc3cc(-c4ccc(Cl)cc4)sc3c2=O)ccc1OCC(C)(C)OC(=O)CN
Activity (Rattus norvegicus [37]): 8.8%

Compound: COc1cc(N2Cc3nn(-c4ccc(Cl)cc4)nc3C2=O)ccc1OCC(O)C1CC1 (racemic)
Ki [4]: 112 nM
